Values joined by “and” are separate entries in the source; they are usually repeats but may differ in a detail not shown here. Equal values may be shown once.
test system: SK-BR-3; assay: normalised viability (% of control), CellTiter-Blue; higher = more viable cells (about 100 = DMSO control); settings: 10000 nM; incubation time: 72 h
Summary of the method: (§1)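 384-well plates were pre-loaded with compound in 5 µl medium before 20 µl of breast cancer cell suspension was seeded. Following 72 h incubation, 2.5 µl CellTiter-Blue reagent was added for 2 h at 37 °C. Fluorescence was read at 560/590 nm and plates were normalised to vehicle (100) and a positive kill control (0), checked by Z'-factor. Normalised viability is reported at a single listed concentration of the series.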

SMILES | normalised viability
Nc1ccccc1NC(=O)c1ccc(CNc2nccc(-c3cccnc3)n2)cc1 [Mocetinostat] | 3.29%
COc1nc(N)nc2c1ncn2[C@@H]1O[C@H](CO)[C@@H](O)[C@@H]1O [Nelarabine] | 102% and 82.1%
Cc1ccc(Nc2nccc(N(C)c3ccc4c(C)n(C)nc4c3)n2)cc1S(N)(=O)=O [Pazopanib] | 88.1%
O=C(CCBr)N1CCN(C(=O)CCBr)CC1 [Pipobroman] | 95.6%
C[C@]12C=CC(=O)C=C1CC[C@@H]1[C@@H]2[C@@H](O)C[C@@]2(C)[C@H]1CC[C@]2(O)C(=O)CO [Prednisolone] | 89.3%

test system: CAL-120; assay: as above; settings: 1 nM; incubation time: 72 h
Summary of the method: as §1

SMILES | normalised viability [%]
CC[C@@]1(O)C(=O)OCc2c1cc1n(c2=O)Cc2cc3c(CN(C)C)c(O)ccc3nc2-1 [Topotecan] | 86.2

same assay, conditions: 2.5 nM; incubation time: 72 h

SMILES | normalised viability [%]
c1cc(CN2CCCNCCNCCCNCC2)ccc1CN1CCCNCCNCCCNCC1 [Plerixafor] | 93.1

same assay, conditions: 10 nM; incubation time: 72 h

SMILES | normalised viability
Nc1ccccc1NC(=O)c1ccc(CNc2nccc(-c3cccnc3)n2)cc1 [Mocetinostat] | 74.8%
COc1nc(N)nc2c1ncn2[C@@H]1O[C@H](CO)[C@@H](O)[C@@H]1O [Nelarabine] | 109% and 93.6%
Cc1ccc(Nc2nccc(N(C)c3ccc4c(C)n(C)nc4c3)n2)cc1S(N)(=O)=O [Pazopanib] | 85.5%
O=C(CCBr)N1CCN(C(=O)CCBr)CC1 [Pipobroman] | 90.1%
C[C@]12C=CC(=O)C=C1CC[C@@H]1[C@@H]2[C@@H](O)C[C@@]2(C)[C@H]1CC[C@]2(O)C(=O)CO [Prednisolone] | 87.5%

same assay, conditions: 100 nM; incubation time: 72 h

SMILES | normalised viability [%]
CC[C@@]1(O)C(=O)OCc2c1cc1n(c2=O)Cc2cc3c(CN(C)C)c(O)ccc3nc2-1 [Topotecan] | 54.8

same assay, conditions: 250 nM; incubation time: 72 h

SMILES | normalised viability [%]
c1cc(CN2CCCNCCNCCCNCC2)ccc1CN1CCCNCCNCCCNCC1 [Plerixafor] | 91.4

same assay, conditions: 1000 nM; incubation time: 72 h

SMILES | normalised viability
Nc1ccccc1NC(=O)c1ccc(CNc2nccc(-c3cccnc3)n2)cc1 [Mocetinostat] | 40.5%
COc1nc(N)nc2c1ncn2[C@@H]1O[C@H](CO)[C@@H](O)[C@@H]1O [Nelarabine] | 96.1% and 105%
Cc1ccc(Nc2nccc(N(C)c3ccc4c(C)n(C)nc4c3)n2)cc1S(N)(=O)=O [Pazopanib] | 91.2%
O=C(CCBr)N1CCN(C(=O)CCBr)CC1 [Pipobroman] | 103%
C[C@]12C=CC(=O)C=C1CC[C@@H]1[C@@H]2[C@@H](O)C[C@@]2(C)[C@H]1CC[C@]2(O)C(=O)CO [Prednisolone] | 73.7%
CC[C@@]1(O)C(=O)OCc2c1cc1n(c2=O)Cc2cc3c(CN(C)C)c(O)ccc3nc2-1 [Topotecan] | 32.1%

same assay, conditions: 2500 nM; incubation time: 72 h

SMILES | normalised viability [%]
c1cc(CN2CCCNCCNCCCNCC2)ccc1CN1CCCNCCNCCCNCC1 [Plerixafor] | 96

same assay, conditions: 10000 nM; incubation time: 72 h

SMILES | normalised viability
Nc1ccccc1NC(=O)c1ccc(CNc2nccc(-c3cccnc3)n2)cc1 [Mocetinostat] | 18.1%
COc1nc(N)nc2c1ncn2[C@@H]1O[C@H](CO)[C@@H](O)[C@@H]1O [Nelarabine] | 95.9% and 107%
Cc1ccc(Nc2nccc(N(C)c3ccc4c(C)n(C)nc4c3)n2)cc1S(N)(=O)=O [Pazopanib] | 97.5%
O=C(CCBr)N1CCN(C(=O)CCBr)CC1 [Pipobroman] | 84.9%
C[C@]12C=CC(=O)C=C1CC[C@@H]1[C@@H]2[C@@H](O)C[C@@]2(C)[C@H]1CC[C@]2(O)C(=O)CO [Prednisolone] | 86.8%

test system: CAL-148; assay: as above; settings: 0.3 nM; incubation time: 72 h
Summary of the method: as §1

SMILES | normalised viability [%]
CC[C@@]1(O)C(=O)OCc2c1cc1n(c2=O)Cc2cc3c(CN(C)C)c(O)ccc3nc2-1 [Topotecan] | 84.5

same assay, conditions: 0.75 nM; incubation time: 72 h

SMILES | normalised viability [%]
c1cc(CN2CCCNCCNCCCNCC2)ccc1CN1CCCNCCNCCCNCC1 [Plerixafor] | 77.3

same assay, conditions: 3 nM; incubation time: 72 h

SMILES | normalised viability
Nc1ccccc1NC(=O)c1ccc(CNc2nccc(-c3cccnc3)n2)cc1 [Mocetinostat] | 89.2%
COc1nc(N)nc2c1ncn2[C@@H]1O[C@H](CO)[C@@H](O)[C@@H]1O [Nelarabine] | 92% and 97%
Cc1ccc(Nc2nccc(N(C)c3ccc4c(C)n(C)nc4c3)n2)cc1S(N)(=O)=O [Pazopanib] | 78.5%
O=C(CCBr)N1CCN(C(=O)CCBr)CC1 [Pipobroman] | 97.9%
C[C@]12C=CC(=O)C=C1CC[C@@H]1[C@@H]2[C@@H](O)C[C@@]2(C)[C@H]1CC[C@]2(O)C(=O)CO [Prednisolone] | 93.8%
CC[C@@]1(O)C(=O)OCc2c1cc1n(c2=O)Cc2cc3c(CN(C)C)c(O)ccc3nc2-1 [Topotecan] | 111%

From the supplement of paper PMC4862054
